Assay results as given in patent US5057414A, “Method for the determination of the activity of serine proteases or serine protease inhibitors” (Behringwerke Aktiengesellschaft, priority 1987, dated 1991).

Experiments:
urokinase [1] = assay: Comparison Experiment 1: conversion of chromogenic plasmin substrate / activity of urokinase in plasma with lysine and/or ammonium peroxodisulfate; assay type: biochemical
Procedure: 50μl of a plasma which is deficient in alpha2 -antiplasmin and has been prepared by immunoadsorption, as well as 1:2, 1:4 and 1:8 mixtures of this deficient plasma with normal plasma, where mixed with 200 μl or solution C (plasminogen activator reagent).
[…] of a 3 mM solution of H-D-Phe-Tyr-Arg-ANBA . 2 HCl in solution A and 500 µl of a plasminogen solution (2 CTA-U/ml) in solution A were added to the samples, the mixtures were incubated at 37° C. for 20 min, subsequently 100 μL of 8.5 M acetic acid were used to stop, and the extinction at 405 nm was determined. […] It is evident that addition of lysine increases the activity of urokinase by more than 100%.

[2] = biological target: T1, plasmin and alpha2-antiplasmin (Homo sapiens, UniProt P00747); assay: Slowing of the reaction between plasmin and alpha2-antiplasmin by omega-amino carboxylic acids; assay type: biochemical; conditions: lysine 10 to 3,000 mM, epsilon-aminocaproic acid 2 to 500 mM, tranexamic acid 0.1 to 50 mM
T1 construct: native proteins

plasmin [3] = assay: Comparison Experiments 5, 6, 8: optimization of reagent concentration in functional PAI (PA) determination (generated plasmin activity); assay type: biochemical
Procedure: (§1) Preincubation of 50 μl of sample with 200 μl of a variant of solution C (plasminogen activator dissolved in basic buffer U) at 37° C. for five minutes was followed by addition of 200 μl of a variant of plasminogen reagent (F), composed of 100 mM Tris-HCl pH 8.4, crosslinked polypeptides 1%, ^R Triton×100 0.1%, 100 mM NaCl without tran-examic acid, NaN3 0.01 % (basic buffer U) with 10 CTA-U/ml plasminogen and 200 μl of distilled water with 10 mM chloramine T, 3 mM tranexamic acid to the reaction mixture. The mixture was incubated at 37° C. for 5 min, and 500 μl of 0.6 mM chromogenic plasmin substrate HD-Nva-CHA-Lys-pNA in 480 mM NaCl (or, as a substitute, 200 mM CsCl) were added. The resultant linear change in extinction, delta A/min, at 405 nm was followed.

plasmin [4] = assay: Comparison Experiment 11: effect of chloramine T and/or tranexamic acid on plasmin activity in the functional PAI assay; assay type: biochemical; conditions: for delta A/4 min: 405 nm
Procedure: as §1

PAI1 = assay: Example 5a: determination of PAI2 via preincubation with polycation-containing PA reagent; assay type: biochemical; conditions: protamine chloride 100 U/ml or polylysine 500 μg/ml
[5] = system: antithrombin III (AT III); assay: Comparison Experiment 13: oxidative inactivation of antithrombin III; assay type: biochemical; conditions: 37° C., 15 min preincubation, pH 8.8
Procedure: 50 pmol of AT III in 50 μl of 50 mM Tris, 100 mM NaCl, 0.1% (w/v) Triton×100, pH 8.8 buffer, are preincubated with increasing quantities of chloramine T or hydrogen peroxide in 50 μl of distilled water at 37° C. for 15 min. Then 3 pmol of human alpha-thrombin, 2.5 IU of heparin and 2 KIU of aprotinin in 500 μl of 100 mM Tris, 150 mM NaCl, pH 8.2, are added, and the mixture is incubated at 37° C. for 5 min. Addition of 500 μl of 0.4 mM H-D-CHA-But-ArgpNA was followed by further incubation for 3 min (37° C.). The reaction was stopped by 100 μl of 8.5 M acetic acid, and the change in extinction at 405 nm was determined.

human alpha-thrombin = assay: Comparison Experiment 13: oxidation resistance of thrombin; assay type: biochemical; conditions: 500 nmol of chloramine T or 500 times the dose of H202
[6] = system: plasminogen activator inhibitors; conditions: Lawrence and Loskutoff, Biochemistry 25, 6351-6355, 1986; cited from earlier work
urokinase [7] = assay: Example 4: oxidation sensitivity of PAI1 and PAI2 (oxidation before addition of plasminogen activator reagent); assay type: biochemical; conditions: oxidation with chloramine T before addition of plasminogen activator reagent
Procedure: 50 μl of sample were incubated with 500 μl of solution A (basic buffer) and 50 μl of solution B (oxidizing reagent) at 37° C. for 10 min. Addition of 200 μl of solution C (plasminogen activator reagent) was followed by incubation at 37° C. for 5 min. The substrate conversion was started by addition of 200 μl of solution E (plasmin substrate reagent) and 100 μl of solution F (plasminogen reagent) and the mixture was incubated at 37° C. for 15 min. After addition of 100 μl of 8.5 M acetic acid, the extinction at 405 nm was determined.

plasmin [8] = assay: Oxidative inactivation of alpha2-antiplasmin; assay type: biochemical
Text: Accurate determination of the said proteins requires that specific and non-specific plasmin inhibitors be quantitatively inactivated. […] This effect corresponds to expectations inasmuch as the plasminogen activator inhibitors belong to the family of serine protease inhibitors (serpins) whose archetype, namely alpha1 -protease inhibitor, contains an oxidizable methionine in the active center. Oxidation of this methionine results in a methionine sulfoxide, and the inhibitory functions are lost with the formation thereof. Lawrence and Loskutoff show, both for alpha1 -protease inhibitor and for plasminogen activator inhibitor, that the inactivation is reversible by treatment with dithiothreitol and methionine-sulfoxide-peptide reductase, i.e. under the conditions described therein the plasminogen activator inhibitor is demonstrably inactivated by oxidation. It was all the less to be expected that the complexes of plasminogen activator and plasminogen activator inhibitor produced in the reaction remain intact even under the oxidizing conditions according to the invention. […] Furthermore, it is very remarkable that the reaction of a non-inhibited plasminogen activator with its substrate, a natural or synthetic plasminogen, as well as the enzymatic reactions dependent thereon, take place undisturbed during the oxidation process.

plasmin [9] = conditions: Shieh and Travis, J.Biol.Chem. 262, 6055-6059, 1987; cited from earlier work

T1 sequence (P00747 97-810, one chain of several): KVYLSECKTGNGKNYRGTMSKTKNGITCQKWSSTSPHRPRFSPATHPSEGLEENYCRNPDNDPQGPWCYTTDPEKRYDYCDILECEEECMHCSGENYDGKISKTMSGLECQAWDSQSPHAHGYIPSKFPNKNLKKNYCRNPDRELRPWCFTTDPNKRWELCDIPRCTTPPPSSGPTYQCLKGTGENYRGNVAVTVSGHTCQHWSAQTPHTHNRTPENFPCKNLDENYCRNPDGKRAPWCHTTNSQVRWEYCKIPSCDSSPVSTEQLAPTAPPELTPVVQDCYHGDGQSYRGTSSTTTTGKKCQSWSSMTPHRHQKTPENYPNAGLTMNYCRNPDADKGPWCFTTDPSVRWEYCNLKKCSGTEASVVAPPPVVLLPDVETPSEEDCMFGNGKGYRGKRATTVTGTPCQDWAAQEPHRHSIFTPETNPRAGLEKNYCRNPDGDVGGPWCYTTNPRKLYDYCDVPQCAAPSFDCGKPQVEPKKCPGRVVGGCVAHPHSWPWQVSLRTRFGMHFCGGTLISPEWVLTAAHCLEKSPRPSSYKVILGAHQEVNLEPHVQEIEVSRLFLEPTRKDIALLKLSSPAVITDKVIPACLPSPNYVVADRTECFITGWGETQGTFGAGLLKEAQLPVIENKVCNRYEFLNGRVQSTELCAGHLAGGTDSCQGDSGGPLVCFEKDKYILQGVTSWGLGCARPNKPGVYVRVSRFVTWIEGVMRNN

N.N.O=S(=O)(O)OOS(=O)(=O)O [ammonium peroxodisulfate]
dependence of the conversion of the chromogenic plasmin substrate on the quantity of alpha2-antiplasmin in the plasma (urokinase [1]; 5% (NH4)2S2O8 in distilled water): does not depend on the quantity of alpha2 -antiplasmin

NCCCC[C@H](N)C(=O)O [lysine]
increase of the activity of urokinase (urokinase [1]; addition of lysine (10% lysine in distilled water)): more than 100% | increase in the extinction compared with the sample without omega-amino carboxylic acid (urokinase [1]; without use of an oxidizing agent): more than 100% | factor by which the reaction between plasmin and alpha2-antiplasmin is slowed down [2]: at least 10

NCCCCCC(=O)O [epsilon-aminocaproic acid]
factor by which the reaction between plasmin and alpha2-antiplasmin is slowed down [2]: at least 10

NC[C@H]1CC[C@H](C(=O)O)CC1 [tranexamic acid]
factor by which the reaction between plasmin and alpha2-antiplasmin is slowed down [2]: at least 10 | tranexamic acid concentration at maximum (plasmin [3]; in the reaction mixture, basic buffer and PAI-deficient plasma): 1 to 4 mM | increase in plasmin activity with alpha2-antiplasmin-deficient plasma compared with normal plasma (plasmin [4]): about 70% | delta A/4 min (plasmin [4]; Normal plasma without alpha2-antiplasmin): 829 mA | delta A/4 min (plasmin [4]; Normal plasma): 488 mA

protamine chloride
PAI measured in presence of polycation in the plasminogen activator reagent (PAI1): only PAI2 (and not PAI1) was measured

O=S(=O)(NCl)c1ccccc1 [chloramine B]
results with chloramine B in place of chloramine T (plasmin [3]; Comparison Experiment 5b): the same as represented for chloramine T

OO [hydrogen peroxide]
dose of hydrogen peroxide inactivating 50 pmol of AT III, as a multiple [5]: 500 times the dose | activity of thrombin at the dose inactivating AT III (human alpha-thrombin): without the activity of thrombin being impaired | concentration inactivating plasminogen activator inhibitors [6]: about 10 mM

polylysine
PAI measured in presence of polycation in the plasminogen activator reagent (PAI1): only PAI2 (and not PAI1) was measured

B1: PAI2: placental inhibitors: these include the inhibitors released from the placenta and leukocytes (protein, UniProt P05120 1-415, looked up)
Plasminogen activator …: MEDLCVANTLFALNLFKHLAKASPTQNLFLSPWSISSTMAMVYMGSRGSTEDQMAKVLQFNEVGANAVTPMTPENFTSCGFMQQIQKGSYPDAILQAQAADKIHSSFRSLSSAINASTGNYLLESVNKLFGEKSASFREEYIRLCQKYYSSEPQAVDFLECAEEARKKINSWVKTQTKGKIPNLLPEGSVDGDTRMVLVNAVYFKGKWKTPFEKKLNGLYPFRVNSAQRTPVQMMYLREKLNIGYIEDLKAQILELPYAGDVSMFLLLPDEIADVSTGLELLESEITYDKLNKWTSKDKMAEDEVEVYIPQFKLEEHYELRSILRSMGMEDAFNKGRANFSGMSERNDLFLSEVFHQAMVDVNEEGTEAAAGTGGVMTGRTGHGGPQFVADHPFLFLIMHKITNCILFFGRFSSP
sensitivity to oxidation (urokinase [7]): less sensitive to oxidation

B2: alpha2 -antiplasmin: specific plasmin inhibitor (protein, UniProt P08697 40-491, looked up)
Alpha-2-antiplasmin: NQEQVSPLTLLKLGNQEPGGQTALKSPPGVCSRDPTPEQTHRLARAMMAFTADLFSLVAQTSTCPNLILSPLSVALALSHLALGAQNHTLQRLQQVLHAGSGPCLPHLLSRLCQDLGPGAFRLAARMYLQKGFPIKEDFLEQSEQLFGAKPVSLTGKQEDDLANINQWVKEATEGKIQEFLSGLPEDTVLLLLNAIHFQGFWRNKFDPSLTQRDSFHLDEQFTVPVEMMQARTYPLRWFLLEQPEIQVAHFPFKNNMSFVVLVPTHFEWNVSQVLANLSWDTLHPPLVWERPTKVRLPKLYLKHQMDLVATLSQLGLQELFQAPDLRGISEQSLVVSGVQHQSTLELSEVGVEAAAATSIAMSRMSLSSFSVNRPFLFFIFEDTTGLPLFVGSVRNPNPSAPRELKEQQDSPGNKDFLQSLKGFPRGDKLFGPDLKLVPPMEEDYPQFGSPK
inactivation of alpha2-antiplasmin under the oxidizing conditions of the invention (plasmin [8]): nearly completely inactivated | resistance of alpha2-antiplasmin to oxidation (plasmin [9]): resistant to oxidation
